Measurements reported in ChEMBL document CHEMBL3108715, “Pan-histone demethylase inhibitors simultaneously targeting Jumonji C and lysine-specific demethylases display high anticancer activities” (J Med Chem, 2014).
The source made the active and inactive calls.

Key:
Format in all cases: functional, cell-based
[1] = tested on: LNCaP; assay: Cytotoxicity against human LNCAP cells at 50 uM after 72 hrs
[2] = tested on: HCT-116; assay: Cytotoxicity against human HCT116 cells at 50 uM after 72 hrs
[3] = tested on: HCT-116; assay: Antimigratory activity against human HCT116 cells at 50 uM after 72 hrs
[4] = tested on: LNCaP; assay: Antimigratory activity against human LNCAP cells at 50 uM after 72 hrs

Measured: Activity

O=C(CCCCCCC(=O)Nc1ccccc1)NO
active: all assays above
